# Key:
# Leishmania promastigotes = Leishmania promastigotes Assay; type: cell-based; conditions: Leishmania; promastigotes, 3H-thymidine uptake; read-out: Leishmania IC50 ± SD
# Method: A WHO reference vaccine strain of L. major originally isolated from a patient in Iran and a Kenyan strain of L. donovani (MHOM(/KE/85/NLB 274) were cultured in medium 199 containing 0.02 mg/ml gentamycin, 25 mM Hepes, 4 mM L-glutamine, and 20% heat inactivated fetal calf serum (FCS). Incubation was carried out at 26° C. Promastigotes were harvested on day 3 and 6 of the culture and used for the parasite growth inhibition.
# The effect of the test compounds on promastigotes was assessed by a method similar to the one described by Pearson et al., by incubating promastigotes (3×10^6/ml) at 26° C. for 2 hrs in the presence of a given compound or the medium alone in 96 wells flat bottom microtiter plates. Following incubation, 100 μCi of 3H-thymidine was added to each well and further incubated for 18 hrs. Promastigotes were then harvested on filter paper by means of a cell harvester, extensively washed with distilled water and counted in a scintillation counter. The promastigotes were also counted microscopically and their flagellar motility was assessed.
# human lymphocytes = experiment: Lymphocyte Proliferation Assay; type: cell-based; conditions: Lymphocyte; PHA provoked proliferation of human lymphocytes; read-out: Lymphocytes IC50 ± SD
# Method: Human blood mononuclear cells (BMNC) from heparinized blood were isolated by metrizoate sodium-Ficoll density gradient centrifugation, washed 3 times in RPMI 1640 medium supplemented with 5% FCS and with 400 IU of penicillin plus 400 μg/ml streptomycin. BMNC were resuspended in the medium and cultured in triplicate, 0.63×10^5/ml and 160 μl per vial, in round-bottom microtiter plates with 20 μl of various concentrations of the test compound. Immediately prior to incubation, optimum concentrations of the mitogen phytohaemagglutinin (PHA) and the antigen purified protein derivative of tuberculin (PPD) were added to the cultures in a volume of 20 μl. Unstimulated control cultures were always included. Cultures were incubated for 3 or 7 days. The degree of lymphocyte proliferation was estimated by ^3H-thymidine (1 μCi per well) addition 24 h before the cells were harvested on glass fiber filters by means of a harvesting machine), and ^3H-thymidine incorporation was measured in a liquid scintillation counter. For each set of triplicate values, the median was recorded. Unstimulated cultures were always included as controls.
# Plasmodium falciparum = Plasmodium falciparum Assay; type: cell-based; conditions: Plasmodium falciparum; 3-H-hypoxanthine incorporation, 48 hours; read-out: Plasmodium IC50 ± SD
# Method: The experiments in which compounds were tested for their ability to inhibit parasite growth were performed by a modification of the method originally described by Jensen et al. (1982). 50 μl of parasitized erythrocytes (parasitemia approximately 1%) in a concentration of 5×10^8/ml and 50 μl of RPMI medium containing different concentrations of the test compound was added to each well of a 96 well flat-bottomed microtiter plate. The cultures were then incubated for 48 hours, 24 hours before termination of the culture adding 20 μl of 3-H-hypoxanthine (40 uCi/ml) was added to each well. The cultures were then harvested onto glass fiber filters using a Skatron cell harvester, and the incorporation of 3-H-hypoxanthine into the DNA of dividing parasites was determined by liquid scintillation spectrometry. Control cultures with uninfected erythrocytes and infected erythrocytes in RPMI medium without test compounds were always performed in parallel to the test cultures. In some experiments thin smears of parasite cultures were stained by Giemsa and examined under microscope (×1000). The test compounds described above, were diluted in RPMI medium immediately before use. In the experiments, chloroquine phosphate was used as a positive control as a drug known to inhibit parasite growth.
# Helicobacter pylori = experiment: Helicobacter species Assay (agar plate, MIC); type: cell-based; conditions: for MIC: Helicobacter pylori, 20 strains of H. pylori, agar plate, 72 hours, read-out: MIC; for No. strains inhibited/No. strains tested: at the MIC of the same line
# Method: (§1) 20 strains of Helicobacter pylori were used in an agar plate assay. The compounds were incorporated in the agar plates at different concentrations as described in the examples and were then inoculated with different strains of Helicobacter pylori followed by incubation in a microaerophilic atmosphere at 37° C. for 72 hours. The number of colony-forming units (CFU) were counted after the incubation period. The MIC values were determined as the minimal concentration required to inhibit growth of the bacteria.
# (§2) Stock solutions were made at a concentration of 1 mg/ml by dissolving 1 mg of each compound in 100 μl DMSO (dimethylsulfoxide) followed by addition of 900 μl of heat-inactivated fetal claf serum (HFCS). These stock solutions were diluted with HFCS to make solutions having the following concentrations: 320 μg/ml, 160 μg/ml, 80 μg/ml, 40 μg/ml and 20 μg/ml. Dilution rows were made with 3 ml aliquots in vials containing the compounds in the following final test concentrations: 16 μg/ml, 8 μg/ml, 4 μg/ml, 2 μg/ml and 1 μg/ml. As control was used DMSO-HFCS containing an amount of DMSO equal to the amount of test compound in the solution with 320 μg/ml compound.
# as §1, with “Bacteria: 20” for “20”, “concentrations” for “concentrations as described in the examples”, “and then they” for “and”, “were” for “were then”, “incubation at” for “incubation in a”, “C. in” for “C. for”
# as §2, with “concentrations: 2560 μg/ml, 1280 μg/ml, 640 μg/ml,” for “concentrations:”, “160 µg/ml and” for “160 μg/ml,”, “80” for “80 μg/ml, 40 μg/ml and 20”, “concentrations: 128 μg/ml, 64 μg/ml, 32 μg/ml, 12” for “concentrations: 16”, “8” for “8 μg/ml, 4 μg/ml, 2”, “and 4” for “and 1”
# Bacteria: 20 strains of Helicobacter pylori were used in an agar plate assay. The same method as described above under Experiment A was employed and MIC values were determined.
# TNF-α = TNF-α production by human peripheral blood mononuclear cells, culture supernatant (ELISA); type: cell-based
# Method: Cells: Peripheral blood mononuclear cells obtained from healthy individuals. The cells were separated by a conventional method lymphoprep) and suspended in RMPI 1640 containing 5% human serum.
# Stimulation of cytokine-release from human mononuclear cells: Human peripheral blood mononuclear cells from Danish donors were suspended in 1-10% (v/v) human serum in RPMI 1640 and adjusted to 2×10^6 cells per ml. 0.1 ml volumes were then dispensed into wells of 96-well microtiter plates. […] In some experiments cells were preincubated with drugs for 2 hrs before addition of stimulation antigens. The cultures were incubated overnight for TNF-α and IL-6 assays.
# Supernatants were collected and assayed for TNF-α, IL-1α and IL-6 by ELISA procedures (Jakobsen et al., 1993, Fomsgaard et al., 1988, Hansen et al., 1991) with the following modifications. ELISA Maxisorp plates (Nunc, Roskilde, Denmark) were coated for 24 hrs at 4 C with 100 μl per well of 2.5 μg/ml rabbit polyclonal IgG to human recombinant TNF, IL-1α or IL-6 in 100 mM sodiumhydrogencarbonate. Non-attached sites were blocked for 1 h by 200 μl per well of 2% human serum slbumin in PBS (1 h at 37° C.), and the wells were washed 4 times in 2.5% NaCl, 0.1% Tween 20 (Merck, Darmstadt, Germany). This washing procedure was done after each of the following incubating steps:
# 1) 100 μl culture supernatants made to 50% (v/v) in incubation buffer (4% (v/v) normal rabbit serum, DAKO code X902), 1% polyethylene glycol (MW 6,000), 2.5% NaCl, 0.1% Tween 20 in phosphate buffered saline (PBS) were incubated 2 hrs at 37° C., dilutions of native as well as recombinant cytokine standards in the same incubation buffer were asssayed in parallel with the tested supernatants,
# 2) 100 μl per well of biotinilated rabbit antibodies to recombinant TNF-α, IL-1α or IL-6 (1.5 μg/ml in 0.5% human serum albumin, 0.1% Tween 20 in PBS) were added at 37° for 2 hrs,
# 3) […] per well of a 1:1000 dilution of streptavidin-peroxidase (Amersham, UK), at room temperature for 30 min.
# Enzyme activities were quantitated after addition of 100 μl per well of 0.67 mg/ml 1,2-phenyldiamine hydrochloride (DAKO) dissolved in 100 mM citric acid-phosphate buffer, pH 5.0 containing 0.015% (v/v) H2O2. The reactions were stopped by adding 50 μl per well of 2.5 M H2SO4, and the optical densities are measured in an ELISA scanner at 490 nm against a test reference at 620 nm.
# Assay: The compounds were prepared as stock solution at a concentration of 1 mg/ml in medium containing 10% DMSO. The dilutions were made in medium. The cells were stimulated with either SPAG (a malaria antigen TNF-inducer) or bacterial LPS. The supernatant of cell cultures were assayed for TNF-α using a commercial ELISA kit.
# [1] = Experiment 1, LPS, 12.5 μg/ml, Control 1.17
# [2] = Experiment 1, LPS, 25 μg/ml, Control 1.17
# [3] = Experiment 1, LPS, 50 μg/ml, Control 1.17
# [4] = Experiment 1, LPS, 100 μg/ml, Control 1.17
# [5] = Experiment 1, SPAG, 12.5 μg/ml, Control 3.73
# [6] = Experiment 1, SPAG, 25 μg/ml, Control 3.73
# [7] = Experiment 1, SPAG, 50 μg/ml, Control 3.73
# [8] = Experiment 1, SPAG, 100 μg/ml, Control 3.73
SMILES,IC50 (Leishmania promastigotes),IC50 (human lymphocytes),melting point,IC50 (Plasmodium falciparum),MIC (Helicobacter pylori),No. strains inhibited/No. strains tested (Helicobacter pylori),also measured
"COc1ccc(C(=O)/C=C/c2ccccc2F)c(OC)c1OC [2-F-2′,3′,4′-OCH3, 2-fluoro-2′,3′,4′-trimethoxychalcone]",15 ± 1 µM,11 ± 1 µM,75 to 75.8 °C,,,,
"COc1cc(/C=C/C(=O)c2ccc(OC)c(OC)c2OC)cc(OC)c1 [2′,3′,4′,3,5-OCH3, 3,5,2′,3′,4′-pentamethoxychalcone]",8.3 ± 0.9 µM,8.7 ± 0.5 µM,111.6 to 112.5 °C,,,,
"COc1cccc(C(=O)/C=C/c2ccc(OC)cc2OC)c1 [3′,2,4-OCH3, 2,4,3′-trimethoxychalcone]",18 ± 3 µM,42 ± 2 µM,75.6 to 78.9 °C,,,,
"COc1ccc(/C=C/C(=O)c2cccc([N+](=O)[O-])c2)c(OC)c1 [3′-NO2-2,4-OCH3, 2,4-dimethoxy-3′-nitrochalcone]",8.6 µM,18 ± 2 µM,88.1 to 88.7 °C,,,,
"O=C(/C=C/c1ccc(Oc2ccccc2)cc1)c1ccc(F)cc1 [4′-F-4-OC6H5, 4-phenoxy-4′-fluorochalcone]",42 ± 6 µM,33 ± 2 µM,115.7 to 116 °C,,,,
"CN(C)c1ccc(/C=C/C(=O)c2ccc([N+](=O)[O-])cc2)cc1 [4′-NO2-4-N(CH3)2, 4-dimethylamino-4′-nitrochalcone]",,,214 to 214.7 °C,,,,
"O=C(/C=C/c1ccc(Oc2ccccc2)cc1)c1ccc(C2CCCCC2)cc1 [4′-cC6H11-4-OC6H5, 4-phenoxy-4′-cyclohexylchalcone]",,,160.9 to 161.1 °C,200 µM,,,
"COc1cc(/C=C/C(=O)c2ccc(N(C)C)cc2)cc(OC)c1 [PH32, 4′-dimethylamino-3,5-dimethoxychalcone]",,,,17 µM,> 128 µg/mL,0/20,inhibitory effect on TNF-α production (TNF-α): no or very little inhibitory effect; TNF-α production (OD values) (TNF-α; [1]): 1.23 OD; TNF-α production (OD values) (TNF-α; [2]): 1.55 OD; TNF-α production (OD values) (TNF-α; [3]): 1.28 OD; TNF-α production (OD values) (TNF-α; [4]): 0.94 OD; TNF-α production (OD values) (TNF-α; [5]): 3.90 OD; TNF-α production (OD values) (TNF-α; [6]): 2.26 OD; TNF-α production (OD values) (TNF-α; [7]): 1.74 OD; TNF-α production (OD values) (TNF-α; [8]): 0.75 OD
"CCCCOc1cccc(C(=O)/C=C/c2ccc(OC)cc2OC)c1 [PH81, 3′-butoxy-2,4-dimethoxychalcone]",20 ± 3 µM,65 ± 4 µM,,16 µM,16 µg/mL,5/20,
"CCCCOc1ccccc1C(=O)/C=C/c1ccc(OC)cc1OC [PH142, 2′-butoxy-2,4-dimethoxychalcone]",,,,,128 µg/mL,2/20,"TNF-α production (OD values) (TNF-α; [1]): 0.26 OD; TNF-α production (OD values) (TNF-α; [2]): 0.24 OD; TNF-α production (OD values) (TNF-α; [3]): 0.18 OD; TNF-α production (OD values) (TNF-α; [4]): 0.10 OD; TNF-α production (OD values) (TNF-α; [5]): 0.02 OD; TNF-α production (OD values) (TNF-α; [6]): 0.02 OD; TNF-α production (OD values) (TNF-α; [7]): 0.02 OD; TNF-α production (OD values) (TNF-α; [8]): 0.02 OD; TNF-α production (OD values) (TNF-α; Experiment 2, LPS, 1.562 μg/ml, Control 2.06): 1.58 OD; TNF-α production (OD values) (TNF-α; Experiment 2, LPS, 3.125 μg/ml, Control 2.06): 1.00 OD; TNF-α production (OD values) (TNF-α; Experiment 2, LPS, 6.25 μg/ml, Control 2.06): 0.65 OD; TNF-α production (OD values) (TNF-α; Experiment 2, LPS, 12.5 μg/ml, Control 2.06): 0.16 OD; TNF-α production (OD values) (TNF-α; Experiment 2, SPAG, 1.562 μg/ml, Control 2.28): 1.86 OD; TNF-α production (OD values) (TNF-α; Experiment 2, SPAG, 3.125 μg/ml, Control 2.28): 0.55 OD; TNF-α production (OD values) (TNF-α; Experiment 2, SPAG, 6.25 μg/ml, Control 2.28): 0.04 OD; TNF-α production (OD values) (TNF-α; Experiment 2, SPAG, 12.5 μg/ml, Control 2.28): 0.02 OD"

# From US20030065039A1, “Biologically active 1,3-bis-aromatic-prop-2-en-1-ones, 1,3-bis-aromatic-propan-1-ones, and 1,3-bis-aromatic-prop-2-yn-1-ones” (Statens Serum Institute, priority 1997, published 2003)
